# Assay results taken from patent publication US6737247B2, “Imaging of enzymatic activity” (The General Hospital Corporation, priority 2000, dated 2004).
# What was measured:
# [1] = test system: peroxidase; assay: H1 NMR relaxometry / relaxivity enhancement after peroxidase treatment; type: biochemical; conditions: equimolar amount added to the peroxidase reaction
# [2] = Chelex-100 resin treatment to test dissociation of gadolinium from the DOTA(Gd) complex; type: physicochemical; conditions: compared to control with no peroxidase added
# From the text: By plotting relaxation data against the concentration of gadolinium, a raise of 1/T1 and I/T2 of 2 fold (at 0.47 T) and 2.7 fold (1.5 T) in the case of substrate I, and 3.5 (at 0.47 T) in the case of substrate II has been measured (Table 1). […] To find out whether the increase in relaxivity is a result of dissociation of gadolinium cation from a DOTA(Gd) complex, we treated Tyr-DOTA(Gd) or Dopamine-DOTA(Gd) with Chelex-100 resin and compared it to the control with no peroxidase added. No difference in T1 relaxation time of substrate solutions before and after the treatment was observed.
# [3] = test system: peroxidase; assay: H1 NMR relaxometry / relaxivity enhancement after peroxidase treatment; type: biochemical; conditions: for r1, peroxidase: after peroxidase; for r1, control: no peroxidase
# Method: Substrates I and II at concentrations of 10-50 μM were treated by peroxidase (0.1-100 nM) and an excess of hydrogen peroxide (3.5 mM) in 10 mM phosphate-buffered saline (PBS) or 0.05 M sodium phosphate pH 6.8. In some experiments, a peroxide-generating system (5 mM glucose, glucose oxidase and lactoperoxidase) was used. In inhibition studies, 2 mM Gd-free substrate, tyramine, dopamine, or methyldopamine were added as competitive inhibitors. The reaction was monitored by spectrophotometry at 400 nm and by NMR spectrometry (Minispec 120 Bruker). Magnetic resonance imaging was performed using a 1.5 T Signa GE system and surface or knee coils. Inversion-recovery pulse sequences (TE 11 ms/TR 1000 ms/TI 50-600 ms) were used for T1 measurements. […] Magnetic resonance signal intensity was measured using region-of-interest approach and 16-bit TIFF images. Mean pixel values were compared using a Student t-test.
# [4] = test system: peroxidase; assay: Kinetics of peroxidase-mediated oxidation in excess hydrogen peroxide, spectrophotometry at 400 nm; type: biochemical; conditions: absorbance at 400 nm
# Method: Substrates I and II at concentrations of 10-50 μM were treated by peroxidase (0.1-100 nM) and an excess of hydrogen peroxide (3.5 mM) in 10 mM phosphate-buffered saline (PBS) or 0.05 M sodium phosphate pH 6.8. In some experiments, a peroxide-generating system (5 mM glucose, glucose oxidase and lactoperoxidase) was used. In inhibition studies, 2 mM Gd-free substrate, tyramine, dopamine, or methyldopamine were added as competitive inhibitors. The reaction was monitored by spectrophotometry at 400 nm and by NMR spectrometry (Minispec 120 Bruker). Magnetic resonance imaging was performed using a 1.5 T Signa GE system and surface or knee coils. Inversion-recovery pulse sequences (TE 11 ms/TR 1000 ms/TI 50-600 ms) were used for T1 measurements. Spin-echo sequence (TE 13 ms/TR 400 ms/2 NEX, Matrix 256×160) was optimal for magnetic resonance imaging of signal amplification. Magnetic resonance signal intensity was measured using region-of-interest approach and 16-bit TIFF images. […]
# Kinetics of oxidation of tyraminyl-DOTA(Gd), I, or hydroxytyraminyl-DOTA(Gd), II, in the presence of the excess of hydrogen peroxide was studied using spectrophotometry. The increase in absorbance at 400 nm in the case of both gadolinium-labeled substrates was rapid, indicating efficient oxidation of both substrates, and gave similar pseudo-first order kinetic constants: k1app=0.0125 s^−1 (I) and 0.013 s^−1 (II).
# [5] = test system: digoxigenin-labeled Fab2' fragment of monoclonal antibody; assay: MRAMP ELISA-like assay with adsorbed DIG-labeled Fab2' fragment and anti-digoxigenin-peroxidase conjugate; conditions: 0.4 mM substrate, 3.5 mM hydrogen peroxide, 96-well plate
# Method: Fab2′ fragment of H18/7 monoclonal anti-human E selectin antibody was prepared using pepsin digestion, and then purified. Labeling of Fab2′-fragment with digoxigenin (DIG) hydroxysuccinimide ester (HSE) (Roche Molecular Diagnostics) was carried out according to the vendor's instructions. One ng to 1000 ng of DIG-labeled antibody was serially diluted with 0.01 M sodium carbonate (pH 9) in a 96-well plate (Nunc) and adsorbed at 37° C. overnight. Wells were washed with PBS containing 0.1% Tween 20 (PBST) blocked with BSA solution, and anti-DIG antibody-peroxidase conjugate (Roche, diluted 1:1000) was incubated in wells in PBS-B for 1 hour. Washed wells were filled with 200 μl of 0.4 mM substrate I or II and hydrogen peroxide (3.5 mM) and incubated for 30 min before imaging. Cells (2 million/sample) were treated sequentially with IL-1β, anti-E selectin DIG-labeled Fab2′-fragment, and anti-DIG antibody-peroxidase. Cell suspensions were prepared in PBS and substrates were used as above. Cells were pelleted in Eppendorf tubes (0.5 ml), and then imaged as described above. […] Magnetic resonance signal intensity was quantified as described above and compared to that of aqueous Gd solutions.
# In the next series of experiments, we determined whether MRAMP could be utilized to detect a model ligand in an ELISA-like assay. […]
Compound,influence of added equimolar competitor on gadolinium relaxivity [1],difference in T1 relaxation time of substrate solutions before and after Chelex-100 treatment [2],raise of 1/T1 and 1/T2 after addition of the enzyme ([3]; 0.47 T),"r1, peroxidase ([3]; 0.47 T (20 MHz))","r1, control ([3]; 0.47 T (20 MHz))","r1, peroxidase ([3]; 1.5 T (63 MHz))","r1, control ([3]; 1.5 T (63 MHz))",pseudo-first order kinetic constant k1app [4],further results
NCCc1ccc(O)c(O)c1 [dopamine],did not influence gadolinium relaxivity,,,,,,,,
NCCc1ccc(O)cc1 [tyramine],did not influence gadolinium relaxivity,,,,,,,,
N[C@@H](Cc1ccc(O)cc1)C(=O)O [tyrosine],did not influence gadolinium relaxivity,,,,,,,,
hydroxytyraminyl-DOTA(Gd) [Substrate II],,No difference,3.5 fold,11.50 mM⁻¹ s⁻¹,3.75 mM⁻¹ s⁻¹,14.1 mM⁻¹ s⁻¹,5.2 mM⁻¹ s⁻¹,0.013 s⁻¹,antibody fragment detected at threshold (sensitivity of MRAMP assay) [5]: 1 ng
methyl-dopamine,did not influence gadolinium relaxivity,,,,,,,,
"tyramine-[1,4,7,10-tetraazacyclododecane-N,N′,N″,N′″-tetraacetic acid, gadolinium salt] [Substrate I]",,No difference,2 fold,7.10 mM⁻¹ s⁻¹,3.30 mM⁻¹ s⁻¹,10.1 mM⁻¹ s⁻¹,4.5 mM⁻¹ s⁻¹,0.0125 s⁻¹,raise of 1/T1 and 1/T2 after addition of the enzyme ([3]; 1.5 T): 2.7 fold
